The values below come from US10548911B2, “Small molecule anti-scarring agents” (UNIVERSITY OF ROCHESTER, priority 2014, dated 2020).

Entries after “also recorded” stand apart in the source; their conditions may differ.

Assay [1] concerns TGFβ-dependent myofibroblast formation in primary human fibroblasts. Put plainly: Myofibroblast formation assay in primary human fibroblasts (morphology, Western blot) for Spectrum hits. It counts as cell-based. The procedure:
Using the lowest effective dose from the secondary screening assay, PPT (5 μM), ASC (1 μM), BTS (1 μM), and AXD (1 μM) were compared to 0.1 μM SNC using primary human fibroblasts (FIG. 13). The myofibroblast formation assay consists of the following protocol: fibroblasts are treated with the aforementioned small molecules and treated with TGFβ (1 ng/ml) for 72 hours. The cells were then either photographed for morphological analysis or collected, lysed and analyzed by Western blot for the myofibroblast markers alpha-smooth muscle actin (αSMA) and calponin. β-tubulin was used as a loading control.
PPT was used at 1 and 5 μM (lanes 3 and 4), BTS was used at 0.1 and 1 μM (lanes 5 and 6), ASC was used at 0.1 and 1 μM (lanes 7 and 8), SNC was used at 100 nM and 1 μM (lanes 9 and 10), and AXD was used at 0.1 and 1 μM (lanes 11 and 12).
Background: In western blotting, separated proteins are transferred to a membrane and probed.

The test system of assay [2] is TGFβ-induced myofibroblast formation in human fibroblasts. Put plainly: Western blot of myofibroblast markers αSMA and calponin in TGFβ-treated human (TED orbital) fibroblasts. In kind it is cell-based. Particulars: for expression of αSMA and calponin: TGFβ; for expression of αSMA and calponin, dose dependence: 10-250 nM. The procedure: TED fibroblasts were treated with TGFβ (1 ng/ml) in the presence or absence of 10-250 nM salinomycin for 72 hours to allow formation of myofibroblasts. After 72 hours, cells were harvested and analyzed by Western blot. As expected, the fibroblasts robustly responded to TGFβ, expressing high levels of αSMA and calponin (FIG. 2A). […] At 50 nM salinomycin, expression of αSMA was reduced by 4-fold over TGFβ treatment alone. Furthermore, at 250 nM salinomycin, αSMA expression was reduced by approximately 16-fold, to levels at or below untreated fibroblasts. […] Another key role of myofibroblasts in scar formation is the production of collagen. Whether salinomycin could block myofibroblast collagen production was assessed. Cells were treated with TGFβ and salinomycin as above and after 72 hours, culture medium was collected and analyzed for collagen levels using a specific collagen I antibody and slot blot analysis.
To test these four compounds, human fibroblasts were treated with TGFβ in the absence or presence of 250 nM of either salinomycin, narasin, clioquinol or monensin for 72 hours. After treatment, cell lysates were harvested and analyzed for the presence of the myofibroblast markers, αSMA and calponin (FIG. 3B).

Assay [3] concerns primary human lung fibroblasts. Put plainly: TGFβ-induced myofibroblast formation, αSMA Western blot and cell images, primary human lung fibroblasts. In kind it is cell-based. The settings on record: HCPT 50 nM or 500 nM, TGFβ, listed as SNC. The procedure:
Human lung fibroblasts were treated with various concentrations of 10-hydroxycamptothecin (HCPT) (50 nM or 500 nM) and induced to form scar-forming myofibroblasts by treating with TGFβ.

The subject of a further assay is p38. Particulars: human ovarian cancer, 2-7 uM; cited from earlier work.
The subject of the next assay is human fibroblasts. Put plainly: BrdU incorporation assay (cell proliferation). In kind it is cell-based. Particulars: for basal fibroblast proliferation (BrdU incorporation): 250 nM, without TGFβ. The procedure:
Human fibroblasts were seeded on a 96-well plate at a density of 1×10^5 cells/well. Cells were treated in triplicate. Cell proliferation was determined using the bromodeoxyuridine (BrdU) assay following manufacturer's instructions. Briefly, cells were treated with a BrdU label at a 1:2000 dilution for 24 h after the initial 72 h treatment with TGFβ+/−drugs. BrdU incorporation was measured using the BrdU Cell Proliferation Assay kit (Calbiochem, San Diego, Calif.) at 450-540 nm using a Varioskan microplate reader.
While salinomycin and other polyether ionophores blocked myofibroblast formation, it was next assessed whether these effects were a result of toxicity and/or due to a block of cell proliferation. Though the treatment doses are relatively low (efficacy in 100-250 nM range), a loss of cell viability could still be a possibility. To test this, human fibroblasts were treated with vehicle (DMSO), 50-250 nM salinomycin alone, TGFβ or TGFβ plus 250 nM salinomycin. As a positive control, fibroblasts were treated with the cytotoxic drug, puromycin. Treated cells were cultured in the presence of alamar blue reagent, which measures mitochondrial oxidation-reduction (REDOX) potential and serves as a quantitative viability sensor. After 72 hours of culture, alamar blue fluorescence was measured to assay cell viability (FIG. 4A). […] It was also tested whether salinomycin affects basal fibroblast proliferation. To address this, cells were treated with vehicle or 250 nm of either salinomycin or narasin for 24 hours in the presence of bromodeoxyuridine (BrdU) to measure cell proliferation ([…], first three bars). […] BrdU was also added to cells treated with TGFβ in the presence or absence of 250 nM salinomycin or narasin (FIG. 4B, last three bars). As expected, TGFβ induced human fibroblast proliferation. Remarkably, both salinomycin and narasin were able to beneficially block TGFβ induced proliferation by 4 to 5 fold, without affecting basal proliferation levels.

A further assay deals with capsular fibroblasts. As to the kind of experiment: Breast implant capsular fibroblasts treated with TGF-β and salinomycin (Western blot, slot blot, morphology). In kind it is cell-based, human. The settings on record: for Thy1 expression: 250 nM, untreated and TGF-β (2.5 ng/mL) treated cultures. The procedure:
FIG. 9 is a set of images of capsular fibroblasts explanted from primary tissue samples cultured in vitro. Treatment consisted of 48 hours growth in serum-starved media (0.1% fetal bovine serum), followed by administration of vehicle, 2.5 ng/mL transforming growth factor-beta (TGF-β), 250 nM salinomycin (SNC), or TGF-β plus SNC for 72 hours. […] Original magnification 200×.
After treatment, cells were lysed for protein extraction and analysis via Western blot. Data are presented in graph form (FIG. 10A) and as images of Western blots (FIG. 10B). […] All protein expression is relative to β-tubulin levels. At time of cell harvest, media supernatant was also taken and equal volumes run on a slot blot to compare presence of extracellular soluble collagen. In like manner, collagen I increased with TGF- and was reduced with co-administration of SNC. **=p<0.01; ***=p<0.001; ****=p<0.0001.
Peri-implant tissue samples from irradiated (n=4) and non-irradiated (n=9) breast capsules were analyzed for expression of Thy1 mRNA by qRT-PCR (FIG. 8). Additionally, capsular fibroblasts were grown in vitro and treated with the pro-fibrotic cytokine transforming growth factor-β (TGFβ) and the polyether ionophore salinomycin, and analyzed for expression of Thy1, αSMA, fibronectin, and collagen by Western blot (FIG. 9 and FIGS. 10A-B). To investigate the fundamental role of Thy1 in capsular fibroblast/myofibroblast formation, Thy1 expression was depleted using Thy1 siRNA (delivered by lentiviral transduction) (FIGS. 11A-B).

Where [4] appears, read: 250 nM plus TGF-β 2.5 ng/mL, 72 hours.

For the compound `CC[C@@H](C(=O)[C@@H](C)[C@@H](O)[C@H](C)[C@@H]1O[C@@H]([C@@H](CC)C(=O)O)CC[C@@H]1C)[C@H]1O[C@]2(C=C[C@@H](O)[C@]3(CC[C@@](C)([C@H]4CC[C@](O)(CC)[C@H](C)O4)O3)O2)[C@H](C)C[C@@H]1C` [salinomycin], the “α-SMA and calponin expression in human fibroblasts” value in assay [1] (FIG. 14 lanes: PPT 1, 5 uM, BTS, ASC, AXD 0.1, 1 uM, SNC 100 nM, 1 uM) is “inhibit β-dependent α-SMA and calponin expression”. Besides, the “expression of Thy1” value in assay [1] (both doses, 100 nM and 1 μM) is on record as “inhibits expression of Thy1”. The “TGFβ-dependent αSMA and calponin (marker) expression” value in assay [1] (lower dose, 100 nM) is given as “effective even at the lower dose”. Besides, the “myofibroblast formation / phenotype” value in assay [1] (lowest effective dose from secondary screen: PPT 5 μM, ASC, BTS, AXD 1 μM, SNC 0.1 μM, TGFβ 1 ng/ml, 72 hours) is listed as “inhibit myofibroblast phenotype”. In addition, the “reduction of αSMA expression over TGFβ treatment alone” value in assay [2] (50 nM, TGFβ 1 ng/ml, 72 hours) is reported as 4 fold; in assay [2] (250 nM, TGFβ 1 ng/ml, 72 hours), “approximately 16 fold”. For the same compound, the “expression of αSMA and calponin” value was “lower than vehicle levels” in assay [2] (250 nM, 72 hours); “inhibited expression of αSMA and calponin” in assay [2] (250 nM, 72 hours, listed as Salinomycin). Further, the “TGFβ-dependent expression of alpha smooth muscle actin, calponin and collagen” value in assay [2] (250 nM, primary human fibroblasts) is “blocked”. In addition, the “expression of αSMA and calponin, dose dependence” value in assay [2] (TGFβ 1 ng/ml, 72 hours) was “dose dependent manner”; in assay [2] (TGFβ 1 ng/ml, 72 hours, listed as Salinomycin), “dose-dependent decrease”. Moreover, the “expression of myofibroblast markers αSMA and calponin” value in assay [2] (100 and 200 nM, TGFβ 1 ng/ml, 72 hours, densitometry) is reported as “below baseline levels”. Also, the “formation of myofibroblasts (cell images)” value in assay [3] is listed as “not in samples treated with HCPT or SNC; also recorded: not in samples with HCPT or salinomycin (SNC)”. Also, the p38 activity entry with p38 is “activated”. Further, the “TGFβ induced proliferation (BrdU incorporation)” value in the assay on human fibroblasts (250 nM plus TGFβ) is “significantly blocked TGFβ induced proliferation”. For the same compound, the results for the “basal fibroblast proliferation (BrdU incorporation)” value with human fibroblasts and in the assay with human fibroblasts (listed as Salinomycin) were “Neither salinomycin nor narasin blocked basal fibroblast proliferation” and “did not affect basal fibroblast proliferation”, respectively. Further, the Alpha-SMA expression result in the assay on capsular fibroblasts (setting [4]) is “below basal levels”. Further, in the assay on capsular fibroblasts (setting [4]), the “cell morphology (myofibroblastic differentiation)” value is on record as “appears to reduce the effect of TGF-β”. Further, the Thy1 expression entry is “dramatically reduced” with capsular fibroblasts (72 hours) and “significantly reduced” in the assay with capsular fibroblasts (72 hours, listed as SNC). The “TGFβ-increased αSMA and collagen I” value in the assay with capsular fibroblasts (explanted capsular fibroblasts, TGFβ plus salinomycin) is given as “nearly completely inhibited; also recorded: reduced”.
